Marks after values point to notes of the source that are not given here.
Experiments:
Format in all cases: in vivo
Kunming mice [1] = test: Influence on autonomic activity of normal mice (ZIL-2 mice autonomic activity meter, counts within 10 min); conditions: intragastric, x ± s, n = 10; for Times of activities in 1 h after drug administration/10 min: 1 h after administration; for Times of activities in 2 h after drug administration/10 min: 2 h after administration; for Times of activities in 24 h after drug administration/10 min: 24 h after administration
Method in brief: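 Activity counts during a 10-min window were taken at 1, 2 and 24 h after dosing in groups of 10 mixed-sex Kunming mice. Compounds were given in 0.5% CMC-Na at 25, 50 or 100 mg/kg. Statistics used Levene's homogeneity test, ANOVA and Dunnett's multiple comparisons.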

Kunming mice [2] = test: Influence on hypnosis effect with pentobarbital sodium doses below the threshold (25 mg/kg i.p.); conditions: pentobarbital sodium 25 mg/kg i.p. 60 min later, sleep observed in 30 min, n = 10
Method in brief: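 Percentage of mice sleeping within 30 min after subthreshold pentobarbital sodium (25 mg/kg i.p.), defined by loss of righting reflex over 1 min, analysed by χ2. Compound in 0.5% CMC-Na given intragastrically at 25/50/100 mg/kg 60 min before; groups of 10 Kunming mice, both sexes.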

Kunming mice [3] = test: Influence on hypnosis effect with pentobarbital sodium doses at the threshold (50 mg/kg i.p.); conditions: pentobarbital sodium 50 mg/kg i.p. 60 min later, x ± s, n = 10
Method in brief: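 Pentobarbital sodium (0.3%, 50 mg/kg i.p.) injected 60 min after a single intragastric dose (25, 50, 100 mg/kg, 0.5% CMC-Na vehicle) in Kunming mice, 10 per group, sexes balanced. Onset and length of sleep (righting reflex lost over 1 min) analysed by ANOVA; sleeping incidence by χ2 test.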

[4] = test drug 25 mg/kg intragastric single dose
[5] = test drug 50 mg/kg intragastric single dose
[6] = test drug 100 mg/kg intragastric single dose
[7] = 25 mg/kg intragastric single dose
[8] = 50 mg/kg intragastric single dose
[9] = 100 mg/kg intragastric single dose

With `COc1ccc(C2CC(=O)c3c(O)cccc3O2)cc1O` (stereo not drawn) [Example 62] as the compound, how does the “Times of activities in 1 h after drug administration/10 min” value (shortened to “Times of activities in 1 h”) (Kunming mice [1]; 25 mg/kg) read?
The value was 279.2 ± 45.4 /10 min.

What about the “Times of activities in 2 h after drug administration/10 min” value (from here on “Times of activities in 2 h”) (Kunming mice [1]; 25 mg/kg) of the same compound?
Its value is 264.9 ± 44.7 /10 min.

What about the “Times of activities in 24 h after drug administration/10 min” value (“Times of activities in 24 h” for short) (Kunming mice [1]; 25 mg/kg) of the same compound?
Its value is 309.0 ± 81.9 /10 min.

What about the “Times of activities in 1 h” value (Kunming mice [1]; 50 mg/kg) of the same compound?
The value was 237.4 ± 41.9 /10 min.

What about the “Times of activities in 2 h” value (Kunming mice [1]; 50 mg/kg) of the same compound?
The value was 242.6 ± 49.2 /10 min.

And the “Times of activities in 24 h” value (Kunming mice [1]; 50 mg/kg)?
Its value is 297.2 ± 69.5 /10 min.

And the “Times of activities in 1 h” value (Kunming mice [1]; 100 mg/kg)?
Its value is 125.6 ± 32.8 /10 min.

And the “Times of activities in 2 h” value (Kunming mice [1]; 100 mg/kg)?
Its value is 170.3 ± 35.2 /10 min.

What about the “Times of activities in 24 h” value (Kunming mice [1]; 100 mg/kg) of the same compound?
Its value is 279.4 ± 86.3 /10 min.

What about the “Number of sleeping animals” value (Kunming mice [2]; [4]) of the same compound?
Its value is 3.

And the “rate of sleeping (%)” value (Kunming mice [2]; [4])?
Its value is 30%.

What about the “Number of sleeping animals” value (Kunming mice [2]; [5]) of the same compound?
Its value is 4.

What about the “rate of sleeping (%)” value (Kunming mice [2]; [5]) of the same compound?
The value was 40* %.

And the “Number of sleeping animals” value (Kunming mice [2]; [6])?
Its value is 6.

What about the “rate of sleeping (%)” value (Kunming mice [2]; [6]) of the same compound?
Its value is 60** %.

And the duration of sleep (Kunming mice [3]; [7])?
The duration of sleep was 34.29 ± 22.83 min.

And the time to sleep (Kunming mice [3]; [7])?
The time to sleep was 4.87 ± 1.96 min.

What about the duration of sleep (Kunming mice [3]; [8]) of the same compound?
The duration of sleep was 57.24 ± 17.30 min.

What about the time to sleep (Kunming mice [3]; [8]) of the same compound?
The time to sleep was 4.21 ± 1.72 min.

And the duration of sleep (Kunming mice [3]; [9])?
Its duration of sleep is 65.03 ± 32.12 min.

What about the time to sleep (Kunming mice [3]; [9]) of the same compound?
Its time to sleep is 3.78 ± 1.90 min.

Source: US9669003B2, “Use of flavone and flavanone derivatives in preparation of sedative and hypnotic drugs” (priority 2012, dated 2017)
